Measurements taken from patent publication US20240398942A1, “USE OF ANTI-CD40 ANTIBODY” (CHIA TAI TIANQING PHARMACEUTICAL GROUP CO., LTD., priority 2021, published 2024).
Where a name gives a salt, the structure may show the parent alone.

How the values were obtained:
[1] = system: human B-cell lymphoma Ramos cells; test: Efficacy of anti-CD40 antibody and anlotinib, Ramos subcutaneous xenograft mouse model; assay type: in vivo
Procedure: Human B-cell lymphoma Ramos cells (purchased from the Cell Bank of the Chinese Academy of Sciences) were cultured in an RPMI1640 medium containing 10% of fetal bovine serum and penicillin-streptomycin. The cells were inoculated in a 37° C./5% CO2 incubator until the logarithmic growth phase and collected for grafting.
The mice used in this study were NOD-Scid mice (purchased from Shanghai Lingchang Biotechnology Co., Ltd.) aged about 6 weeks and bred in specific pathogen-free conditions in 12/12-hour light/dark cycles. The health status of the animals was monitored daily.
Each mouse was inoculated subcutaneously with 1×10^7 Ramos cells. When the tumor grew to 80-100 mm^3, the mice were divided into groups of 10 according to the tumor volume. The administration regimen is shown in Table 10, with the first dosing day designated as DO. Antibody huC1H1-V2 and IgG2 (Biointron, Cat. No. B107803) were both formulated to desired concentrations with normal saline, and anlotinib dihydrochloride was formulated at desired concentrations with distilled water. At the end of study (D14), the animals were sacrificed by CO2 anesthesia and dissected to give the tumors. The tumors were photographed.
The tumor diameters were measured twice weekly with a vernier caliper. Tumor volume (V)=½×a×b^2, wherein a and b denote length and width, respectively; T/C (%)=(T−T0)/(C−C0)×100, wherein T and C refer to the tumor volumes of the treatment group and the IgG2 control group on day 14, respectively, and TO and C0 refer to the tumor volumes of the treatment group and IgG2 control group on day 0, respectively; the tumor growth inhibition % (TGI %)=100−T/C (%). When the tumor regressed, the tumor growth inhibition % (TGI %)=100−(T−T0)/T0×100. If the tumor volume was smaller than the initial volume, i.e., T<T0 or C<C0, the outcome was defined as partial regression (PR); if the tumors completely disappeared, i.e., the outcome was defined as complete regression (CR).

Human CD40-his [2] = molecular target: T1, Human CD40-his (Homo sapiens, UniProt P25942); test: Biacore surface plasmon resonance affinity and binding kinetics; settings: for Kd: dissociation rate
T1 construct: His; purchased Acro biosystems CD0-H5228
Source text: (§1) The affinity and binding kinetics of the anti-CD40 antibody in the present application were characterized by a Biacore T200 system (GE Healthcare, Pittsburgh, PA, USA).
(§2) Briefly, a goat anti-human IgG (GE Healthcare, Cat. No. BR100839, human antibody capture kit) was covalently linked to a CM5 chip (GE Healthcare, Cat. No. BR100530, carboxymethylated dextran-coated chip) via the primary amine group using a standard amine coupling kit supplied by Biacore (GE Healthcare, Pittsburgh, PA, USA). Unreacted portions on the biosensor surface were blocked with ethanolamine. Then, the anti-CD40 antibody of the present application and two benchmark antibodies (BM1 (dacetuzumab, Genentech Inc., also referred to CD40-BM1, prepared in-house; the heavy and light chain amino acid sequences are set forth in SEQ ID NOs: 40 and 41, respectively) and BM2 (selicrelumab, Abgenix Inc., also referred to CD40-BM2, prepared in-house; the heavy and light chain amino acid sequences are set forth in SEQ ID NOS: 42 and 43, respectively)) at a concentration of 66.67 nM were directed through the chip at a flow rate of 10 μL/min. Then, serially diluted recombinant human CD40-his (Acro biosystems, Cat. No. CD0-H5228, serially 2-fold diluted from 80 nM in HBS-EP^+ buffer (supplied by Biacore)) or cynomolgus monkey CD40-his protein (Acro biosystems, Cat. No. CD0-C52H6, serially 2-fold diluted from 80 nM in HBS-EP^+ buffer (supplied by Biacore)) was directed through the chip at a flow rate of 30 μL/min. The antigen-antibody binding kinetics was tracked for 2 min and the dissociation kinetics was tracked for 10 min. The association and dissociation curves were fitted to a 1:1 Langmuir binding model using BIAcore evaluation software. KD, Ka, and Kd values were determined.

[3] = system: Cynomolgus monkey CD40-his; test: as above; settings: for Kd: dissociation rate
Source text: as §1, §2

Human CD40-his [4] = molecular target: T1, Human CD40-his; test: Octet kinetics of humanized C1H1 antibodies; assay type: binding; settings: Table 3, Octet
Procedure: After six days of culture in a shake flask, the cell supernatant containing the humanized antibodies huC1H1-V1 to huC1H1-V4 was harvested and the binding affinity of the antibodies to human CD40 was determined on an Octet system (Fortebio, Octet RED 96) according to the following procedures. Briefly, an anti-human IgG Fc capture (AHC) biosensor (from ForteBio) was pre-soaked in a 10 mM glycine solution (pH 1.5) for 3 s, and then soaked in a running buffer (PBST containing 0.5% w/v of BSA) for 3 s. The pre-soaking and soaking procedures were repeated 3 times. Then, the sensor was soaked in the cell supernatant containing the humanized anti-CD40 antibody, chimeric antibody C1H1 dissolved in HBS-EP^+ buffer at a concentration of 5 μg/mL, or the benchmark dissolved in HBS-EP^+ buffer at a concentration of 5 μg/mL for 120 s, and then soaked in the running buffer for 5 min. The new baseline was run in the running buffer for 180 s. The sensor was then soaked for 120 s in human CD40-his protein (Acro biosystems, Cat. No. CD0-H5228) 2-fold serially diluted from 40 nM in the running buffer and for 10 min in the running buffer […]. Finally, the sensor was pre-soaked in a 10 mM glycine solution (pH 1.5) for 3 s, and then soaked in the running buffer for 3 s. The pre-soaking and soaking procedures were repeated 3 times. […]

[5] = Table 2, Biacore, association rate
[6] = Table 5, Biacore, purified antibodies

T1 sequence (P25942 21-277): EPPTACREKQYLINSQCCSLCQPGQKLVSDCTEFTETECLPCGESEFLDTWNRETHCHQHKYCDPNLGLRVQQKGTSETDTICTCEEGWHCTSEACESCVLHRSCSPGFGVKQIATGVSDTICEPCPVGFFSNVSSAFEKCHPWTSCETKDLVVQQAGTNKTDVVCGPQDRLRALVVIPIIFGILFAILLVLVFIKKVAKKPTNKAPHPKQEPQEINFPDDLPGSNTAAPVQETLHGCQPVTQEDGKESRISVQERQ

| Ka (Human CD40-his [2]; [5]) | Kd (Human CD40-his [2]; Table 2, Biacore) | Kd (Human CD40-his [2]; Table 5, Biacore) | Ka (Human CD40-his [2]; [6]) | Ka [3, 5] | Kd ([3]; Table 2, Biacore) | Kd ([3]; Table 5, Biacore) | Ka [3, 6] | Kd (Human CD40-his [4]; dissociation rate) | Ka (Human CD40-his [4]; humanized antibodies in cell supernatant, chimeric and benchmark 5 μg/mL) | Compound | Mean tumor volume (mean ± SD) D 0 ([1]; baseline, huC1H1-V2 0.5 mg/kg i.p. once every 2 days × 8, anlotinib dihydrochloride 1 mg/kg intragastric daily × 15) | Mean tumor volume (mean ± SD) D 14 ([1]; huC1H1-V2 0.5 mg/kg i.p. once every 2 days × 8, anlotinib dihydrochloride 1 mg/kg intragastric daily × 15) | TGI D 14 (tumor growth inhibition rate) ([1]; huC1H1-V2 0.5 mg/kg i.p., anlotinib dihydrochloride 1 mg/kg intragastric) | Tolerability (symptoms such as weight loss) ([1]; huC1H1-V2 0.5 mg/kg i.p., anlotinib dihydrochloride 1 mg/kg intragastric, tumor-bearing mice) | T/C D 14 ([1]; vs IgG2 group, huC1H1-V2 0.5 mg/kg i.p., anlotinib dihydrochloride 1 mg/kg intragastric) |
| --- | --- | --- | --- | --- | --- | --- | --- | --- | --- | --- | --- | --- | --- | --- | --- |
| – | – | – | – | – | – | – | – | – | – | COc1cc2c(Oc3ccc4[nH]c(C)cc4c3F)ccnc2cc1OCC1(N)CC1 [anlotinib dihydrochloride, 1-[[[4-(4-fluoro-2-methyl-1H-indol-5-yl)oxy-6-methoxyquinolin-7-yl]oxy]methyl]cyclopropylamine, reference compound] | 85.3 ± 3.8 mm^3 | 1602.8 ± 137.1 mm^3 | 56% | well tolerated | 44% |
| 739000 M⁻¹ s⁻¹ | 0.006556 s⁻¹ | 0.007562 s⁻¹ | 803000 M⁻¹ s⁻¹ | 623000 M⁻¹ s⁻¹ | 0.006164 s⁻¹ | 0.007397 s⁻¹ | 764000 M⁻¹ s⁻¹ | – | – | BM1: benchmark antibody dacetuzumab, Genentech Inc., prepared in-house; heavy and light chain SEQ ID NOs: 40 and 41 [reference compound] | – | – | – | – | – |
| – | – | 0.001616 s⁻¹ | 206000 M⁻¹ s⁻¹ | – | – | 0.001508 s⁻¹ | 173000 M⁻¹ s⁻¹ | 0.000979 s⁻¹ | 874000 M⁻¹ s⁻¹ | BM2: benchmark antibody selicrelumab, Abgenix Inc., prepared in-house; heavy and light chain SEQ ID NOs: 42 and 43 [reference compound] | – | – | – | – | – |
